Results from patent US10759783B2, “Biaryl inhibitors of Bruton'S tyrosine kinase” (BIOGEN MA INC., priority 2013, dated 2020).

These molecules were tested against T1, BTK enzyme (Homo sapiens, UniProt Q06187) (assay: In vitro BTK kinase assay: BTK-POLYGAT-LS assay). Conditions: ATP 10 μM, read-out: IC50 (10uMATP).
T1 construct: purchased Upstate 14-552
Type: biochemical
Method in brief: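 Human BTK activity was measured with final 10 μM ATP and 100 nM polyGAT substrate in pH 7.5 Tris buffer with 10 mM MgCl2, DTT, Triton X-100 and casein.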

T1 sequence (Q06187 whole entry): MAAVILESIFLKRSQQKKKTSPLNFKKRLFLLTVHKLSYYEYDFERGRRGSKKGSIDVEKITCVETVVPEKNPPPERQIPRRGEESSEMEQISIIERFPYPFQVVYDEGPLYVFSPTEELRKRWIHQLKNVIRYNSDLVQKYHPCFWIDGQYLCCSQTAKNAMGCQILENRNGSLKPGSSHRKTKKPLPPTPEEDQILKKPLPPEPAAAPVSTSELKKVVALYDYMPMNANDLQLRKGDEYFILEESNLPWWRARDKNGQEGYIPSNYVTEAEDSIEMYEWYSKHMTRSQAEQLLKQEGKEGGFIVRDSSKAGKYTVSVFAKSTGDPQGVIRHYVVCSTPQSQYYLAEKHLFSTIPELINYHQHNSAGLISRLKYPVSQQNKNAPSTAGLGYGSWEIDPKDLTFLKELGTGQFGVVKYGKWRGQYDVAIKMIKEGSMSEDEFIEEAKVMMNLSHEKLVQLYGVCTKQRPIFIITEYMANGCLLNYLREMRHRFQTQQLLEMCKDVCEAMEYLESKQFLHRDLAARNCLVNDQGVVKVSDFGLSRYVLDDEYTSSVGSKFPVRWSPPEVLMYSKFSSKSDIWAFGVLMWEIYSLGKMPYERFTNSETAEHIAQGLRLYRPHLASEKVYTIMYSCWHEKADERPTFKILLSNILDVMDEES

Structure (SMILES) | IC50
Cc1cc(-c2nc(N)ncc2F)ccc1CNC(=O)c1cnc(C(C)(C)C)s1 [Example I-110, N-(4-(2-amino-5-fluoropyrimidin-4-yl)-2-methylbenzyl)-2-(tert-butyl)thiazole-5-carboxamide] | 10 to 99 nM
Cc1cc(-c2nc(Nc3cnn(C)c3)ncc2C)ccc1CNC(=O)c1cnc(C(C)(C)C)s1 [Example I-112, 2-(tert-butyl)-N-(2-methyl-4-(5-methyl-2-((1-methyl-1H-pyrazol-4-yl)amino)pyrimidin-4-yl)benzyl)thiazole-5-carboxamide] | < 10 nM
Nc1nccc(-c2cnc(CNC(=O)c3cc4c(s3)CCCC4)c(F)c2)n1 [Example I-113, N-((5-(2-aminopyrimidin-4-yl)-3-fluoropyridin-2-yl)methyl)-4,5,6,7-tetrahydrobenzo[b]thiophene-2-carboxamide] | 100 to 999 nM
Cc1cc(-c2cnnc(Nc3cnn(C)c3)c2)ccc1CNC(=O)c1cnc(C(C)(C)C)s1 [Example I-114, 2-(tert-butyl)-N-(2-methyl-4-(6-((1-methyl-1H-pyrazol-4-yl)amino)pyridazin-4-yl)benzyl)thiazole-5-carboxamide] | 100 to 999 nM
Cn1cc(Nc2nccc(-c3ccc(CNC(=O)c4cc5c(s4)CCOC5)c(F)c3)n2)cn1 [Example I-117, N-(2-fluoro-4-(2-((1-methyl-1H-pyrazol-4-yl)amino)pyrimidin-4-yl)benzyl)-6,7-dihydro-4H-thieno[3,2-c]pyran-2-carboxamide] | 10 to 99 nM
Cc1cc(-c2ccnc(Nc3ccc(N4CCN(C)CC4)cn3)n2)ccc1CNC(=O)c1cc2c(s1)CCNC2 [Example I-119, N-(2-methyl-4-(2-((5-(4-methylpiperazin-1-yl)pyridin-2-yl)amino)pyrimidin-4-yl)benzyl)-4,5,6,7-tetrahydrothieno[3,2-c]pyridine-2-carboxamide] | 100 to 999 nM
Cc1cc(-c2ccnc(Nc3cnn(C[C@@H](N)CO)c3)n2)ccc1CNC(=O)c1cnc(C(C)(C)C)s1 [Example I-133, (R)—N-(4-(2-((1-(2-amino-3-hydroxypropyl)-1H-pyrazol-4-yl)amino)pyrimidin-4-yl)-2-methylbenzyl)-2-(tert-butyl)thiazole-5-carboxamide] | < 10 nM
CN1CCn2nc(Nc3cc(-c4ccc5c(c4)CCCC5NC(=O)c4cnc(C(C)(C)C)s4)ncn3)cc2C1 (stereo not shown) [Example I-134, 2-(tert-butyl)-N-(6-(6-((5-methyl-4,5,6,7-tetrahydropyrazolo[1,5-a]pyrazin-2-yl)amino)pyrimidin-4-yl)-1,2,3,4-tetrahydronaphthalen-1-yl)thiazole-5-carboxamide] | < 10 nM
CC(C)(C)c1ncc(C(=O)NC2CCCc3cc(-c4ccnc(N)n4)ccc32)s1 (stereo not shown) [Example I-136, N-(6-(2-aminopyrimidin-4-yl)-1,2,3,4-tetrahydronaphthalen-1-yl)-2-(tert-butyl)thiazole-5-carboxamide] | 10 to 99 nM
Nc1nccc(-c2ccc3c(c2)CCCC3NC(=O)c2cc3c(s2)CCCC3)n1 (stereo not shown) [Example I-137, N-(6-(2-aminopyrimidin-4-yl)-1,2,3,4-tetrahydronaphthalen-1-yl)-4,5,6,7-tetrahydrobenzo[b]thiophene-2-carboxamide] | < 10 nM
Cc1cc(-c2ccnc(N)n2)ccc1CNC(=O)c1cc2c(s1)CCS(=O)(=O)C2 [Example I-138, N-(4-(2-aminopyrimidin-4-yl)-2-methylbenzyl)-6,7-dihydro-4H-thieno[3,2-c]thiopyran-2-carboxamide 5,5-dioxide] | 1000 to 10000 nM
Cc1cc(-c2ccnc(N)n2)ccc1CNC(=O)c1cc2c(s1)CCOC2 [Example I-139, N-(4-(2-aminopyrimidin-4-yl)-2-methylbenzyl)-6,7-dihydro-4H-thieno[3,2-c]pyran-2-carboxamide] | 10 to 99 nM
Cc1cc(-c2ccnc(N)n2)ccc1CNC(=O)c1cc2c(s1)CCNC2 [Example I-140, N-(4-(2-aminopyrimidin-4-yl)-2-methylbenzyl)-4,5,6,7-tetrahydrothieno[3,2-c]pyridine-2-carboxamide] | 10 to 99 nM
Cc1cc(-c2ccnc(N)n2)ccc1CNC(=O)c1cc2c(s1)CCN(C)C2 [Example I-141, N-(4-(2-aminopyrimidin-4-yl)-2-methylbenzyl)-5-methyl-4,5,6,7-tetrahydrothieno[3,2-c]pyridine-2-carboxamide] | 100 to 999 nM
CC(=O)Nc1cc(-c2ccc(CNC(=O)c3cc4c(s3)CCCC4)c(C)c2)ncn1 [Example I-143, N-(4-(6-acetamidopyrimidin-4-yl)-2-methylbenzyl)-4,5,6,7-tetrahydrobenzo[b]thiophene-2-carboxamide] | < 10 nM
CN(Cc1cc(-c2ccnc(N)n2)ccc1CNC(=O)c1cc2c(s1)CCCC2)C(=O)OC(C)(C)C [Example I-144, tert-butyl 5-(2-aminopyrimidin-4-yl)-2-((4,5,6,7-tetrahydrobenzo[b]thiophene-2-carboxamido)methyl)benzyl(methyl)carbamate] | 10 to 99 nM

Structure (SMILES) | IC50
CNCc1cc(-c2ccnc(N)n2)ccc1CNC(=O)c1cc2c(s1)CCCC2 [Example I-145, N-(4-(2-aminopyrimidin-4-yl)-2-((methylamino)methyl)benzyl)-4,5,6,7-tetrahydrobenzo[b]thiophene-2-carboxamide] | 100 to 999 nM
C=CC(=O)N(C)Cc1cc(-c2ccnc(N)n2)ccc1CNC(=O)c1cc2c(s1)CCCC2 [Example I-146, N-(4-(2-aminopyrimidin-4-yl)-2-((N-methylacrylamido)methyl)benzyl)-4,5,6,7-tetrahydrobenzo[b]thiophene-2-carboxamide] | 100 to 999 nM
Cc1cc(-c2cc(Nc3cc4n(n3)CCCN(C)C4)ncn2)ccc1CNC(=O)c1cnc(C(C)(C)C)s1 [Example I-147, 2-(tert-butyl)-N-(2-methyl-4-(6-((5-methyl-5,6,7,8-tetrahydro-4H-pyrazolo[1,5-a][1,4]diazepin-2-yl)amino)pyrimidin-4-yl)benzyl)thiazole-5-carboxamide] | < 10 nM
Cc1cc(-c2cc(Nc3cc4n(n3)CCCNC4)ncn2)ccc1CNC(=O)c1cnc(C(C)(C)C)s1 [Example I-148, 2-(tert-butyl)-N-(2-methyl-4-(6-((5,6,7,8-tetrahydro-4H-pyrazolo[1,5-a][1,4]diazepin-2-yl)amino)pyrimidin-4-yl)benzyl)thiazole-5-carboxamide] | < 10 nM
Cc1cc(-c2cc(Nc3cc4n(n3)CCCN(C(=O)OC(C)(C)C)C4)ncn2)ccc1CNC(=O)c1cnc(C(C)(C)C)s1 [Example I-149, tert-butyl 2-((6-(4-((2-(tert-butyl)thiazole-5-carboxamido)methyl)-3-methylphenyl)pyrimidin-4-yl)amino)-7,8-dihydro-4H-pyrazolo[1,5-a][1,4]diazepine-5(6H)-carboxylate] | < 10 nM
Cc1cc(-c2cc(Nc3cc4n(n3)CCN(C)C4)ncn2)ccc1CNC(=O)c1cnn(C(C)(C)C)c1 [Example I-150, 1-(tert-butyl)-N-(2-methyl-4-(6-((5-methyl-4,5,6,7-tetrahydropyrazolo[1,5-a]pyrazin-2-yl)amino)pyrimidin-4-yl)benzyl)-1H-pyrazole-4-carboxamide] | < 10 nM
Cc1cc(-c2cc(Nc3ccn(CCO)n3)ncn2)ccc1CNC(=O)c1cnc(C(C)(C)C)s1 [Example I-151, 2-(tert-butyl)-N-(4-(6-((1-(2-hydroxyethyl)-1H-pyrazol-3-yl)amino)pyrimidin-4-yl)-2-methylbenzyl)thiazole-5-carboxamide] | < 10 nM
Cc1cc(-c2ccnc(Nc3cnn(C)c3)n2)ccc1CNC(=O)N1CC(OC(C)(C)C)C1 [Example I-152, 3-(tert-butoxy)-N-(2-methyl-4-(2-((1-methyl-1H-pyrazol-4-yl)amino)pyrimidin-4-yl)benzyl)azetidine-1-carboxamide] | < 10 nM
Cc1cc(-c2ccnc(Nc3cnn(C)c3)n2)ccc1CNC(=O)c1cc(C(C)(C)C)on1 [Example I-153, 5-(tert-butyl)-N-(2-methyl-4-(2-((1-methyl-1H-pyrazol-4-yl)amino)pyrimidin-4-yl)benzyl)isoxazole-3-carboxamide] | < 10 nM
Cc1cc(-c2ccnc(Nc3cnn(C)c3)n2)ccc1CNC(=O)c1cnn(C(C)(C)C)c1 [Example I-154, 1-(tert-butyl)-N-(2-methyl-4-(2-((1-methyl-1H-pyrazol-4-yl)amino)pyrimidin-4-yl)benzyl)-1H-pyrazole-4-carboxamide] | < 10 nM
Cc1cc(-c2ccnc(Nc3cnn(C)c3)n2)ccc1CNC(=O)c1ccn(C)c1 [Example I-155, 1-Methyl-N-(2-methyl-4-(2-((1-methyl-1H-pyrazol-4-yl)amino)pyrimidin-4-yl)benzyl)-1H-pyrrole-3-carboxamide] | 10 to 99 nM
Cc1cc(-c2ccnc(Nc3cnn(C)c3)n2)ccc1CNC(=O)c1cn2c(n1)CCCC2 [Example I-156, N-(2-Methyl-4-(2-((1-methyl-1H-pyrazol-4-yl)amino)pyrimidin-4-yl)benzyl)-5,6,7,8-tetrahydroimidazo[1,2-a]pyridine-2-carboxamide] | 100 to 999 nM
Cc1cc(-c2ccnc(Nc3cnn(C)c3)n2)ccc1CNC(=O)c1cnn(C)c1 [Example I-157, 1-Methyl-N-(2-methyl-4-(2-((1-methyl-1H-pyrazol-4-yl)amino)pyrimidin-4-yl)benzyl)-1H-pyrazole-4-carboxamide] | 10 to 99 nM
Cc1cc(-c2ccnc(Nc3cnn(C)c3)n2)ccc1CNC(=O)c1cccn1C [Example I-158, 1-Methyl-N-(2-methyl-4-(2-((1-methyl-1H-pyrazol-4-yl)amino)pyrimidin-4-yl)benzyl)-1H-pyrrole-2-carboxamide] | 100 to 999 nM
Cc1cc(-c2ccnc(Nc3cnn(C)c3)n2)ccc1CNC(=O)c1cc2n(n1)CCCC2 [Example I-159, N-(2-Methyl-4-(2-((1-methyl-1H-pyrazol-4-yl)amino)pyrimidin-4-yl)benzyl)-4,5,6,7-tetrahydropyrazolo[1,5-a]pyridine-2-carboxamide] | < 10 nM
